Laboratory results reported in patent publication US7829528B2, “Compositions and methods for treating STAT-6 associated diseases or conditions” (The Rockefeller University, priority 2004, dated 2010).
Where no end group is shown, it is not given here.

Assays:
IL-4 = experiment: Ovalbumin-induced IL-4 production by splenocytes from ovalbumin-sensitized mice (ELISA); format: cell-based, BALB/c mice; details: ovalbumin 100 μg/mL + 100 μM peptide added daily, four days; ovalbumin alone 309.3 ± 49.6
Experimental: Splenocytes from ovalbumin-sensitized mice were cultured for four days with no antigen, with ovalbumin alone, or with ovalbumin plus the STAT-6-IP or a STAT-6 Tyr-641 mutant (STAT-6-CP; Tyr-Ala-Arg-Ala-Ala-Ala-Arg-Gln-Ala-Arg-Ala-Gly-Arg-Gly-Phe-Val-Ser-Thr-Thr; SEQ ID NO:8). The STAT-6-IP and STAT-6-CP were added to splenocyte cultures daily. Treatment with the STAT-6-IP, but not the STAT-6-CP, reduced the supernatant levels of both IL-4 and IL-13 (Table 3).
BALB/c mice were sensitized systemically by two weekly i.p. injections of 0.025% ovalbumin mixed with 4 mg/mL Al(OH)3. One week after the second sensitization, mice were sacrificed and spleens harvested. A single cell suspension of splenocytes (5×10^6 cells/mL) was cultured in RPMI-1640 medium containing 10% heat-inactivated fetal bovine serum and 2 mM L-glutamine, 50 μM 2-mercaptoethanol, 100 U/mL penicillin, and 100 μg/mL streptomycin sulfate. Splenocytes were cultured for four days in the presence or absence of 100 μg/mL ovalbumin, either alone or with 100 μM STAT-6-IP or STAT-6-CP, which were added daily. After four days, culture supernatants were harvested to quantify cytokine production by ELISA. […] Cytokine expression was monitored by flow cytometry and analyzed using CELLQUEST™ software (Becton Dickinson). […]

IL-13 mRNA = experiment: Semiquantitative RT-PCR of IL-13 mRNA in splenocytes; format: cell-based, BALB/c mice; details: splenocytes cultured with ovalbumin plus peptide
Experimental: The levels of mRNA encoding IL-4, IL-13 and IFN-gamma were also evaluated by semiquantitative RT-PCR analysis. Ovalbumin-induced expression of both IL-4 and IL-13 mRNA was inhibited in splenocytes cultured with the STAT-6-IP and not the STAT-6-CP. […] The number of CD4+ T cells producing IL-4 was also quantified by intracellular cytokine staining. When splenocytes from ovalbumin-sensitized mice were cultured with ovalbumin, there was a significant increase in the number of CD4+ lymphocytes expressing IL-4 (Table 4). The increase in IL-4 expression was abrogated in splenocytes cultured with ovalbumin in the presence of the STAT-6-IP, while the STAT-6-CP had no effect.
Reverse transcriptase (RT)-PCR was used to monitor expression of mRNAs encoding IL-4, IL-13 and IFN-gamma. Materials for RNA extraction and RT-PCR were purchased from INVITROGEN™ Canada (Burlington, Ontario). Total RNA was extracted from splenocytes, treated with DNAse, and 1 μg of RNA was reverse transcribed into cDNA using SUPERSCRIPT™ II reverse transcriptase. […] PCR products were resolved by gel electrophoresis and visualized and quantified on a FLUORCHEM™ 8000 Imaging System (Alpha Innotech, San Leandro, Calif.) using ALPHAEASE™ software (Alpha Innotech). […]

## YARAAARQARAGRGFVSTT [STAT-6-CP, STAT-6 Tyr-641 mutant, control peptide]
IL-4
  IL-4 (pg/mL ± SEM), culture supernatant: 212.9 ± 4.1 pg/mL
IL-13 mRNA
  Inhibition of ovalbumin-induced expression of IL-13 mRNA: not
